Reference: ChEMBL document CHEMBL1152704, “Synthesis and structure-function analysis of Fe(II)-form-selective antibacterial inhibitors of Escherichia coli methionine aminopeptidase” (Bioorg Med Chem Lett, 2009)
Converted amounts (≈) assume the structure as drawn.

How the values were obtained:
[1] = Inhibition of mangnese-activated Escherichia coli MetAP
[2] = test system: Escherichia coli; assay: Antibacterial activity against Escherichia coli AS19; type: functional, organism-based
[3] = Inhibition of cobalt-activated Escherichia coli MetAP
[4] = Inhibition of ferrous-activated Escherichia coli MetAP

Row | IC50 [1] [µM] | IC50 [2] [µM] | MIC [2] [µg/mL] | IC50 [3] [µM] | IC50 [4] [µM] | Structure (SMILES)
1 | > 100 | 228 | 164 (≈ 792 µM) | > 100 | 11.2 | COc1cnc(-c2cccc(O)c2O)o1
2 | > 100 | 55 | 26 (≈ 100 µM) | > 100 | 14.8 | O=C(NC1CC1)c1ccc(-c2ccc(O)c(O)c2)o1
3 | > 100 | 165 | 199 (≈ 690 µM) | > 100 | 11 | O=C(NC1CCCC1)c1ncoc1-c1cccc(O)c1O
4 | 6.7 | 50.8 | 39 (≈ 143 µM) | 21.2 | 1 | C=CCCNC(=O)c1ccc(-c2ccc(O)c(O)c2)o1
5 | > 100 | 206 | 80 (≈ 388 µM) | 52.6 | 10.6 | Oc1ccc(-c2ncc(F)cn2)cc1O
6 | 19.5 | 97.7 | 79 (≈ 296 µM) | 24.6 | 16.1 | Oc1ccc(-c2cn(Cc3ccccc3)nn2)cc1O
7 | > 100 | > 250 |  | > 100 | 25.5 | Oc1ccc(-c2ncccn2)cc1O
8 | 11.8 | 23.4 | 19 (≈ 66.1 µM) | 30.1 | 0.9 | O=C(NC1CCCC1)c1ccc(-c2ccc(O)c(O)c2)o1
9 | > 100 | 97.2 | 99 (≈ 361 µM) | > 100 | 13.4 | C=CCCNC(=O)c1ncoc1-c1cccc(O)c1O
10 | > 100 | 120 | 99 (≈ 421 µM) | > 100 | 14 | COC(=O)c1ncoc1-c1cccc(O)c1O
11 | > 100 | > 250 |  | > 100 | > 100 | Cn1ccnc1-c1ccc(O)c(O)c1
12 | 7.9 | 43.9 | 29 (≈ 106 µM) | 22.5 | 1.2 | O=C(NC1CCC1)c1ccc(-c2ccc(O)c(O)c2)o1
13 | > 100 | 211 | 106 (≈ 566 µM) | > 100 | 19.3 | Oc1ccc(-c2ccccn2)cc1O
